Assay results reported in US6833456B2, “Indolyl-urea derivatives of thienopyridines useful as antiangiogenic agents, and methods for their use” (Agouron Pharmaceuticals, Inc., priority 2002, dated 2004).
Where “and” joins values, the source holds several entries; their conditions need not be identical. Equal values may be shown once.

Key:
[1] = tested on: human umbilical vein endothelial cells (HUVEC); test: HUVEC+VEGF proliferation assay; format: cell-based; details: Homo sapiens, HUVEC, 72 h, VEGF 6 ng/mL, MTT
Experimental: This assay determines the ability of a test compound to inhibit the growth factor-stimulated proliferation of human umbilical vein endothelial cells (“HUVEC”). HUVEC cells (passage 3-4, Clonetics, Corp.) were thawed into EGM2 culture medium (Clonetics Corp) in T75 flasks. Fresh EGM2 medium was added to the flasks 24 hours later. Four or five days later, cells were exposed to another culture medium (F12K medium supplemented with 10% fetal bovine serum (FBS), 60 μg/mL endothelial cell growth supplement (ECGS), and 0.1 mg/mL heparin). Exponentially-growing HUVEC cells were used in experiments thereafter. Ten to twelve thousand HUVEC cells were plated in 96-well dishes in 100 μl of rich, culture medium (described above). The cells were allowed to attach for 24 hours in this medium. The medium was then removed by aspiration and 105 μl of starvation media (F12K+1% FBS) was added to each well. After 24 hours, 15 μl of test agent dissolved in 1% DMSO in starvation medium or this vehicle alone was added into each treatment well; the final DMSO concentration was 0.1%. One hour later, 30 μl of VEGF (30 ng/mL) in starvation media was added to all wells except those containing untreated controls; the final VEGF concentration was 6 ng/mL. Cellular proliferation was quantified 72 hours later by MTT dye reduction, at which time cells were exposed for 4 hours MTT (Promega Corp.). Dye reduction was stopped by addition of a stop solution (Promega Corp.) and absorbance at 595 nm was determined on a 96-well spectrophotometer plate reader.

[2] = target: T1, unphosphorylated VEGF-R2Δ50 (FLVK) (Homo sapiens, UniProt P35968, DEL940-989/E990V); test: VEGF-R2 coupled spectrophotometric assay, unphosphorylated construct (FLVK); format: biochemical; details: for inhibition at 0.05 µM: percent inhibition at 50 nM
T1 construct: VEGF-R2Δ50 contains residues 806-939 and 990-1171; made in house; host or cells: baculovirus/insect cell system
T1 sequence (P35968 with tags, fused parts or gaps DEL940-989/E990V limits assumed): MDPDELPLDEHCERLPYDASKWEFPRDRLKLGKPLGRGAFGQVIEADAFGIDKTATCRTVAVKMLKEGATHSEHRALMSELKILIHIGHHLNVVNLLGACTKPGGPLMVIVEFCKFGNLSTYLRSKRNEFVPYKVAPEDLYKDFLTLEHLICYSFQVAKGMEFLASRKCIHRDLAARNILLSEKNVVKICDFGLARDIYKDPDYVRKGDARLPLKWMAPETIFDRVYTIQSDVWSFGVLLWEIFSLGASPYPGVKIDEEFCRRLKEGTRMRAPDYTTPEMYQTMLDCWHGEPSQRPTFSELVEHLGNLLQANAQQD
From the text: This construct determines the ability of a test compound to inhibit tyrosine kinase activity. A construct (VEGF-R2Δ50) of the cytosolic domain of human vascular endothelial growth factor receptor 2 (VEGF-R2) lacking the 50 central residues of the 68 residues of the kinase insert domain was expressed in a baculovirus/insect cell system. Of the 1356 residues of full-length VEGF-R2, VEGF-R2Δ50 contains residues 806-939 and 990-1171, and also one point mutation (E990V) within the kinase insert domain relative to wild-type VEGF-R2. Autophosphorylation of the purified construct was performed by incubation of the enzyme at a concentration of 4 μM in the presence of 3 mM ATP and 40 mM MgCl2 in 100 mM HEPES, pH 7.5, containing 5% glycerol and 5 mM DTT, at 4° C. for 2 h. […] See Parast et al., Biochemistry, 37, 16788-16801 (1998).
The production of ADP from ATP that accompanies phosphoryl transfer was coupled to oxidation of NADH using phosphoenolpyruvate (PEP) and a system having pyruvate kinase (PK) and lactic dehydrogenase (LDH). The oxidation of NADH was monitored by following the decrease of absorbance at 340 nm ([…]=6.22 cm^−1 mM^−1) using a Beckman DU 650 spectrophotometer. Assay conditions for phosphorylated VEGF-R2Δ50 (indicated as FLVK-P in the tables below) were the following: 1 mM PEP; 250 μM NADH; 50 units of LDH/mL; 20 units of PK/mL; 5 mM DTT; […]; 1 mM ATP; and 25 mM MgCl2 in 200 mM HEPES, pH 7.5. Assay conditions for unphosphorylated VEGF-R2Δ50 (indicated as FLVK in the tables) were the following: 1 mM PEP; 250 μM NADH; 50 units of LDH/mL; 20 units of PK/mL; 5 mM DTT; […]; 3 mM ATP; and 60 mM MgCl2 and 2 mM MnCl2 in 200 mM HEPES, pH 7.5. Assays were initiated with 5 to 40 nM of enzyme. Ki values were determined by measuring enzyme activity in the presence of varying concentrations of test compounds. The percent inhibition at 50 nm (% inhibition@ 50 nm) was determined by linear least-squares regression analysis of absorbance as a function of time. The binding inhibitions were fitted to equation as described by Morrison. The data were analyzed using Enzyme Kinetic and Kaleidagraph software.

PDGFRβ = target: T2, PDGFRβ (Homo sapiens, UniProt P09619); test: PAE-PDGFRβ phosphorylation in PAE-PDGFRB cells assay; format: cell-based; details: PAE cells overexpressing human PDGFRβ, PDGF-BB stimulated; read-out: PAE PDGFR autophos IC50
T2 construct: expressed in transfected cells; host or cells: porcine aorta endothelial (PAE) cells
T2 sequence (P09619 33-1106): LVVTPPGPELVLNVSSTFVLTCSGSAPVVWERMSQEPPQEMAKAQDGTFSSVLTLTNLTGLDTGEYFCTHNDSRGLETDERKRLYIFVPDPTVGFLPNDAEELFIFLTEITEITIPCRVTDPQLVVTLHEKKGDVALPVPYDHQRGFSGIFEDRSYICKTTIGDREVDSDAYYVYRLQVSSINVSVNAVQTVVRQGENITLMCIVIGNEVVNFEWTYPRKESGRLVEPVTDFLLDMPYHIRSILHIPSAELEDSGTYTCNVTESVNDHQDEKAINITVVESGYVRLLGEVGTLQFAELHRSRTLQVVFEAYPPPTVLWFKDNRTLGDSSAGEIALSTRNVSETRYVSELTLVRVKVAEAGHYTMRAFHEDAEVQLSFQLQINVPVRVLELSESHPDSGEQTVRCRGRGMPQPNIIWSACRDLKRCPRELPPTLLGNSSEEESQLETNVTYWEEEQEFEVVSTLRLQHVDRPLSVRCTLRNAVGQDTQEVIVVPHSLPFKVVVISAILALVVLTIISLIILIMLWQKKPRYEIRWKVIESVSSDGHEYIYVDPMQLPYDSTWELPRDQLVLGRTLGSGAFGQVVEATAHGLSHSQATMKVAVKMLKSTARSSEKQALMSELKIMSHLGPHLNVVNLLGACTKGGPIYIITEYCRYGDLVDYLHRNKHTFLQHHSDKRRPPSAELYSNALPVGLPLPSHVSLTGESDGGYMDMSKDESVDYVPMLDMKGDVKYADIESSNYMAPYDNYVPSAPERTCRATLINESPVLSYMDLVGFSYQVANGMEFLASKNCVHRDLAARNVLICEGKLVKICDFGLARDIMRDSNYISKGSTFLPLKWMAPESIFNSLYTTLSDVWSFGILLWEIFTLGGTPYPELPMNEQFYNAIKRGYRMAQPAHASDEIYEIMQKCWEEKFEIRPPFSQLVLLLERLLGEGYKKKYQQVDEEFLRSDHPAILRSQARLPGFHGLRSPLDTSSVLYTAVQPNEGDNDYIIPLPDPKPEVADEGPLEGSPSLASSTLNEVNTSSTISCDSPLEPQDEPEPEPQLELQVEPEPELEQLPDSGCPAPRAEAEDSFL
Experimental: This assay determines the ability of a test compound to inhibit the autophosphorylation of PDGFRβ in porcine aorta endothelial (PAE)-PDGFRβ cells. PAE cells that overexpress human PDGFRβ were used in this assay. The cells were cultured in Ham's F12 media supplemented with 10% fetal bovine serum (FBS) and 400 ug/ml G418. Twenty thousands cells were seeded in each well of a 96-well plate in 50 μL of growth media and allowed to attach for 6 hours at 37° C. Cells were then exposed to the starvation media (Ham's F12 media supplemented with 0.1% FBS) for 16 hours. After the starvation period was over, 10 μL of test agent in 5% DMSO in starvation media were added to the test wells and 10 μL of the vehicle (5% DMSO in starvation media) were added into the control wells. The final DMSO concentration in each well was 0.5%. Plates were incubated at 37° C. for 1 hour and the cells were then stimulated with 1 μg/mL PDGF-BB (R & D System) in the presence of 2 mM Na3VO4 for 8 minutes. The cells were washed once with 1 mm Na3VO4 in HBSS and lysed by adding 50 μL per well of lysis buffer. One hundred μL of dilution buffer were then added to each well and the diluted cell lysate was transferred to a 96-well goat ant-rabbit coated plate (Pierce), which was pre-coated with Rabbit anti Human PDGFRβ antibody (Santa Cruz). The plates were incubated at room temperature for 2 hours and washed seven times with 1% Tween 20 in PBS. HRP-PY20 (Santa Cruz) was diluted and added to the plate for a 30-minute incubation. Plates were then washed again and TMB peroxidase substrate (Kirkegaard & Perry) was added for a 10-minute incubation. One hundred μL of 0.09 N H2SO4 was added into each well of the 96-well plate to stop the reaction. Phosphorylation status was assessed by spectrophotometer reading at 450 nm. IC50 values were calculated by curve fitting using a four-parameter analysis.

SMILES	Ki [2] [nM]	inhibition at 0.05 µM [2] [%]	IC50 (PDGFRβ)	IC50 [1] [nM]
CO[C@H]1CCN(C(=O)c2cc3nccc(Oc4ccc5c(c4)cc(C)n5C(=O)NCC#N)c3s2)C1 [Example 9f, 5-[2-(3S-Methoxy-pyrrolidine-1-carbonyl)-thieno[3,2-b]pyridin-7-yloxy]-2-methyl-indole-1-carboxylic acid cyanomethyl-amide]	0.667	84	13 nM	0.68
CNC(=O)n1c(C)cc2cc(Nc3ncnc4sc(C(=O)N5CCC[C@H]5COC)cc34)ccc21 [Example 12b, 5-[6-(2-Methoxymethyl-pyrrolidine-1-carbonyl)-thieno[2,3-b]pyrimidin-4-ylamino]-2-methyl-indole-1-carboxylic acid methylamide]	141	5	> 1000 nM	–
CNC(=O)n1c(C)cc2cc(Oc3ccnc4cc(C(=O)N5CCC5)sc34)ccc21 [Example 8m, 5-[2-(Azetidine-1-carbonyl)-thieno[3,2-b]pyridin-7-yloxy]-2-methyl-indole-1-carboxylic acid methylamide]	0.004	99	4.5 nM	0.084
CNC(=O)n1c(C)cc2c(F)c(Oc3ccnc4cc(C(=O)N5CC[C@H](O)C5)sc34)ccc21 [Example 5i, 4-Fluoro-5-[2-(3S-hydroxy-pyrrolidine-1-carbonyl)-thieno[3,2-b]pyridin-7-yloxy]-2-methyl-indole-1-carboxylic acid methylamide]	0.525	97	–	0.11
C#CCNC(=O)n1c(C)cc2cc(Nc3ccnc4cc(C(=O)N5CC[C@H](OC)C5)sc34)ccc21 [Example 1h, 5-[2-(3S-Methoxy-pyrrolidine-1-carbonyl)-thieno[3,2-b]pyridin-7-ylamino]-2-methyl-indole-1-carboxylic acid prop-2-ynylamide]	1.23	94	57.7 nM	–
CNC(=O)c1c(C)n(C(=O)NC)c2ccc(Oc3ccnc4cc(C(=O)N5CC[C@@H](N(C)C)C5)sc34)cc12 [Example 8a, 5-[(2-{[(3R)-3-(Dimethylamino)pyrrolidin-1-yl]carbonyl}thieno[3,2-b]pyridin-7-yl)oxy]-N,N′,2-trimethyl-1H-indole-1,3-dicarboxamide]	4.55	68	> 1000 nM	–
CNC(=O)n1c(C)cc2cc(Nc3cccc4cc(C(=O)N5C[C@H](O)C[C@H]5CO)sc34)ccc21 [Example 3i, 5-[2-((2S,4R)-4-Hydroxy-2-hydroxymethyl-pyrrolidine-1-carbonyl)-benzo[b]thiophen-7-ylamino]-2-methyl-indole-1-carboxylic acid methylamide]	4.17	74	–	5.5
CNC(=O)n1c(C)cc2cc(Nc3ccnc4cc(C(=O)N5CC(F)[C@H](O)C5)sc34)ccc21 (stereo partly drawn) [Example 7b, 5-[(2-{[(4R)-3-Fluoro-4-hydroxypyrrolidin-1-yl]carbonyl}thieno[3,2-b]pyridin-7-yl)amino]-N,2-dimethyl-1H-indole-1-carboxamide]	0.406	95	> 1000 nM	–
C#CCNC(=O)n1c(C)cc2c(F)c(Oc3ccnc4cc(C(=O)N5CC[C@@H](OC)C5)sc34)ccc21 [Example 5o, 4-Fluoro-5-[2-((R)-3-methoxy-pyrrolidine-1-carbonyl)-thieno[3,2-b]pyridin-7-yloxy]-2-methyl-indole-1-carboxylic acid prop-2-ynylamide]	0.09	99	3.65 nM	–
Cc1cc2cc(Nc3ccnc4cc(C(=O)N5C[C@H](O)C[C@H]5C(C)(C)O)sc34)ccc2n1C(=O)NC1CC1 [Example 3e]	2.1	87	–	4.9

The next lines start with results.

Ki [2] [nM]	inhibition at 0.05 µM [2] [%]	IC50 (PDGFRβ)	SMILES	IC50 [1] [nM]
0.428	98	28.6 nM	C#CCNC(=O)n1c(C)c(Cl)c2c(F)c(Oc3ccnc4cc(C(=O)N5CC[C@H](OC)C5)sc34)ccc21 [Example 6a, 3-Chloro-4-fluoro-5-[2-(3S-methoxy-pyrrolidine-1-carbonyl)-thieno[3,2-b]pyridin-7-yloxy]-2-methyl-indole-1-carboxylic acid prop-2-ynylamide]	0.427
–	–	95 nM and 152 nM	CNC(=O)n1c(C)cc2cc(Nc3ccnc4cc(C(=O)N5CC[C@H](OC)C5)sc34)ccc21 [Example 1g, 5-[2-(3S-Methoxy-pyrrolidine-1-carbonyl)-thieno[3,2-b]pyridin-7-ylamino]-2-methyl-indole-1-carboxylic acid methylamide]	1
0.64	93	155 nM and 120 nM	CNC(=O)n1c(C)cc2cc(Nc3ccnc4cc(C(=O)N5C[C@H](OC)[C@@H](OC)C5)sc34)ccc21 [Example 1r, 5-[2-(3S,4S-Dimethoxy-pyrrolidine-1-carbonyl)-thieno[3,2-b]pyridin-7-ylamino]-2-methyl-indole-1-carboxylic acid methylamide]	0.301
0.72	96	–	C#CCNC(=O)n1c(C)cc2cc(Nc3ccnc4cc(C(=O)N5CC[C@H](O)C5)sc34)ccc21 [Example 1j, 5-[2-(3S-Hydroxy-pyrrolidine-1-carbonyl)-thieno[3,2-b]pyridin-7-ylamino]-2-methyl-indole-1-carboxylic acid prop-2-ynylamide]	0.149
0.2	83	2.48 nM	CNC(=O)n1c(C)cc2cc(Oc3ccnc4cc(-c5nc(CO)cs5)sc34)ccc21 [Example 3m]	–
